Results on 16 compounds are retold here after patent publication US20200325154A1, “ANTIBACTERIAL BIAROMATIC DERIVATIVES WITH OXETANE-3-YLOXY SUBSTITUTION” (priority 2016, published 2020).

Converted amounts (≈) assume the structure as drawn.

Holding throughout (assay): Bacterial growth minimal inhibitory concentration (microdilution, cation-adjusted Mueller-Hinton Broth)
The test system of one assay is E. faecalis ATCC 29212. Format: cell-based, Enterococcus faecalis. The settings on record: quinolone-sensitive strain; for MIC: Enterococcus faecalis, ATCC29212, Table 1. The method, then:
(§1) Minimal Inhibitory Concentrations (MICs; mg/L) were determined in cation-adjusted Mueller-Hinton Broth by a microdilution method following the description given in “Methods for Dilution Antimicrobial Susceptibility Tests for Bacteria that Grow Aerobically”, Approved standard, 7^1 ed., Clinical and Laboratory Standards Institute (CLSI) Document M7-A7, Wayne, Pa., USA (2006).
(§2) All Example compounds were tested against relevant Gram positive and Gram negative bacteria. […] Staphylococcus aureus A798 and Acinetobacter baumannii T6474 are multiply-resistant strains (in particular quinolone-resistant), whereas Moraxella catarrhalis A894 and Enterococcus faecalis ATCC29212 are quinolone-sensitive strains.

Another assay has as its system S. aureus A798. It counts as cell-based, Staphylococcus aureus. To be noted: for MIC: Staphylococcus aureus, A798, Table 1, multiply-resistant (quinolone-resistant) strain. The method, then: as §1, §2
Another assay has as its system A. baumannii T6474. It counts as cell-based, Acinetobacter baumannii. The settings on record: for MIC: Acinetobacter baumannii, T6474, Table 1, multiply-resistant (quinolone-resistant) strain. The method, then:
as §1, §2

The test system of a further assay is M. catarrhalis A894. Format: cell-based, Moraxella catarrhalis. To be noted: quinolone-sensitive strain; for MIC: Moraxella catarrhalis, A894, Table 1. The procedure: as §1, §2
[1] abbreviates: Table 2, comparison with Example 50 of WO 2014/170821.
Setting [2] is: Table 2, comparison with Example 50 of WO 2014/170821, multiply-resistant strain.

The term MIC denotes the least concentration at which growth counts as inhibited. Lower therefore signals inhibition by little substance.

For `O=C1COc2ccc(N3C[C@H](CCNCc4cc(-c5cncc(OC6COC6)n5)ccn4)OC3=O)nc2N1` [Example 1, 6-{(S)-5-[2-({4-[6-(oxetan-3-yloxy)-pyrazin-2-yl]-pyridin-2-ylmethyl}-amino)-ethyl]-2-oxo-oxazolidin-3-yl}-4H-pyrido[3,2-b][1,4]oxazin-3-one], the minimum inhibitory concentration (MIC) was 0.25 µg/mL (≈ 0.481 µM) against E. faecalis ATCC 29212, at most 0.031 µg/mL in the assay on S. aureus A798, 0.125 µg/mL (≈ 0.241 µM) with A. baumannii T6474 and at most 0.031 µg/mL against M. catarrhalis A894.

For `O=C1COc2ccc(-n3cc(CCNCc4cc(-c5cncc(OC6COC6)n5)ccn4)oc3=O)nc2N1` [Example 2, 6-{5-[2-({4-[6-(oxetan-3-yloxy)-pyrazin-2-yl]-pyridin-2-ylmethyl}-amino)-ethyl]-2-oxo-oxazol-3-yl}-4H-pyrido[3,2-b][1,4]oxazin-3-one], the minimum inhibitory concentration (MIC) in the assay with E. faecalis ATCC 29212 was 0.25 µg/mL (≈ 0.483 µM); in the assay with S. aureus A798, at most 0.031 µg/mL; against A. baumannii T6474 it was 0.125 µg/mL (≈ 0.242 µM); against M. catarrhalis A894, at most 0.031 µg/mL.

With `O=C1COc2ccc(N3C[C@H](CCNCc4cc(-c5cc(OC6COC6)ccn5)ccn4)OC3=O)nc2N1` [Example 3, 6-[(S)-5-(2-{[4-(oxetan-3-yloxy)-[2,4′]bipyridinyl-2′-ylmethyl]-amino}-ethyl)-2-oxo-oxazolidin-3-yl]-4H-pyrido[3,2-b][1,4]oxazin-3-one], the minimum inhibitory concentration (MIC) was determined as 1 µg/mL (≈ 1.93 µM) against E. faecalis ATCC 29212, 1 µg/mL (≈ 1.93 µM) against S. aureus A798, 1 µg/mL (≈ 1.93 µM) with A. baumannii T6474 and 0.25 µg/mL (≈ 0.482 µM) against M. catarrhalis A894.

For `O=C1COc2ccc(N3C[C@H](CCNCc4cc(-c5nccc(OC6COC6)n5)ccn4)OC3=O)nc2N1` [Example 4, 6-{(S)-5-[2-({4-[4-(oxetan-3-yloxy)-pyrimidin-2-yl]-pyridin-2-ylmethyl}-amino)-ethyl]-2-oxo-oxazolidin-3-yl}-4H-pyrido[3,2-b][1,4]oxazin-3-one], the MIC was 0.25 µg/mL (≈ 0.481 µM) in the assay with E. faecalis ATCC 29212, at most 0.031 µg/mL against S. aureus A798, 0.125 µg/mL (≈ 0.241 µM) in the assay with A. baumannii T6474 and at most 0.031 µg/mL with M. catarrhalis A894.

Regarding `O=C1COc2ccc(N3C[C@H](CCNCc4cc(-c5cc(OC6COC6)cnn5)ccn4)OC3=O)nc2N1` [Example 5, 6-{(S)-5-[2-({4-[5-(oxetan-3-yloxy)-pyridazin-3-yl]-pyridin-2-ylmethyl}-amino)-ethyl]-2-oxo-oxazolidin-3-yl}-4H-pyrido[3,2-b][1,4]oxazin-3-one], the MIC came to 8 µg/mL (≈ 15.4 µM) in the assay on E. faecalis ATCC 29212, 8 µg/mL (≈ 15.4 µM) against S. aureus A798, 8 µg/mL (≈ 15.4 µM) with A. baumannii T6474 and 0.5 µg/mL (≈ 0.962 µM) with M. catarrhalis A894.

Consider `O=C1COc2ccc(N3C[C@H](CCNCc4cccc(-c5cccc(OC6COC6)n5)c4)OC3=O)nc2N1` [Example 6, 6-[(S)-5-(2-{3-[6-(oxetan-3-yloxy)-pyridin-2-yl]-benzylamino}-ethyl)-2-oxo-oxazolidin-3-yl]-4H-pyrido[3,2-b][1,4]oxazin-3-one], for which the MIC is 0.25 µg/mL (≈ 0.483 µM) in the assay on E. faecalis ATCC 29212, at most 0.031 µg/mL in the assay on S. aureus A798, 0.25 µg/mL (≈ 0.483 µM) with A. baumannii T6474 and at most 0.031 µg/mL in the assay with M. catarrhalis A894.

For `O=C1COc2ccc(N3C[C@H](CCNCc4ccnc(-c5cncc(OC6COC6)n5)c4)OC3=O)nc2N1` [Example 7, 6-{(S)-5-[2-({2-[6-(oxetan-3-yloxy)-pyrazin-2-yl]-pyridin-4-ylmethyl}-amino)-ethyl]-2-oxo-oxazolidin-3-yl}-4H-pyrido[3,2-b][1,4]oxazin-3-one], the minimum inhibitory concentration (MIC) was 0.5 µg/mL (≈ 0.962 µM) in the assay with E. faecalis ATCC 29212, at most 0.031 µg/mL with S. aureus A798, 0.5 µg/mL (≈ 0.962 µM) against A. baumannii T6474 and at most 0.031 µg/mL with M. catarrhalis A894.

For the compound `O=C1COc2ccc(N3C[C@H](CCNCc4cccc(-c5cc(OC6COC6)cnn5)c4)OC3=O)nc2N1` [Example 8, 6-[(S)-5-(2-{3-[5-(oxetan-3-yloxy)-pyridazin-3-yl]-benzylamino}-ethyl)-2-oxo-oxazolidin-3-yl]-4H-pyrido[3,2-b][1,4]oxazin-3-one], the minimum inhibitory concentration (MIC) with E. faecalis ATCC 29212 is 4 µg/mL (≈ 7.71 µM); in the assay with S. aureus A798, 0.5 µg/mL (≈ 0.964 µM); in the assay with A. baumannii T6474, 1 µg/mL (≈ 1.93 µM); against M. catarrhalis A894 it was 0.25 µg/mL (≈ 0.482 µM).

Consider `O=C1COc2ccc(N3C[C@H](CCNCc4cccc(-c5cccc(OC6COC6)c5)c4)OC3=O)nc2N1` [Example 9, 6-[(S)-5-(2-{[3′-(oxetan-3-yloxy)-biphenyl-3-ylmethyl]-amino}-ethyl)-2-oxo-oxazolidin-3-yl]-4H-pyrido[3,2-b][1,4]oxazin-3-one], for which the minimal inhibitory concentration (MIC) in the assay with E. faecalis ATCC 29212 is 0.5 µg/mL (≈ 0.968 µM); in the assay with S. aureus A798 it was 0.125 µg/mL (≈ 0.242 µM); in the assay on A. baumannii T6474 it was 1 µg/mL (≈ 1.94 µM); in the assay with M. catarrhalis A894 it was at most 0.031 µg/mL. In addition, the “MIC for E. faecalis ATCC 29212” value against E. faecalis ATCC 29212 (setting [1]) is 0.5 µg/mL. In addition, the “MIC for S. aureus A798” value in the assay with S. aureus A798 (setting [2]) worked out at 0.125 µg/mL. Moreover, in the assay with A. baumannii T6474 (setting [2]), the “MIC for A. baumannii T6474” value worked out at 1 µg/mL. The “MIC for M. catarrhalis A894” value with M. catarrhalis A894 (setting [1]) was at most 0.031 µg/mL.

As to `O=C1COc2ccc(N3C[C@@H](CCNCc4cc(-c5nccc(OC6COC6)n5)ccn4)OC3=O)nc2N1` [Example 10, 6-{(R)-5-[2-({4-[4-(oxetan-3-yloxy)-pyrimidin-2-yl]-pyridin-2-ylmethyl}-amino)-ethyl]-2-oxo-oxazolidin-3-yl}-4H-pyrido[3,2-b][1,4]oxazin-3-one], the MIC was found to be 0.5 µg/mL (≈ 0.962 µM) with E. faecalis ATCC 29212, 0.25 µg/mL (≈ 0.481 µM) in the assay with S. aureus A798, 0.25 µg/mL (≈ 0.481 µM) in the assay with A. baumannii T6474 and 0.063 µg/mL (≈ 0.121 µM) in the assay on M. catarrhalis A894.

Regarding `O=C1CSc2ccc(N3C[C@H](CCNCc4cc(-c5nccc(OC6COC6)n5)ccn4)OC3=O)nc2N1` [Example 11, 6-{(S)-5-[2-({4-[4-(oxetan-3-yloxy)-pyrimidin-2-yl]-pyridin-2-ylmethyl}-amino)-ethyl]-2-oxo-oxazolidin-3-yl}-4H-pyrido[3,2-b][1,4]thiazin-3-one], the MIC was 0.125 µg/mL (≈ 0.233 µM) in the assay with E. faecalis ATCC 29212, at most 0.031 µg/mL against S. aureus A798, 0.125 µg/mL (≈ 0.233 µM) in the assay with A. baumannii T6474 and at most 0.031 µg/mL with M. catarrhalis A894.

For the compound `O=C1CSc2ccc(N3C[C@H](CCNCc4cc(-c5nccc(OC6COC6)n5)ccn4)OC3=O)cc2N1` [Example 12, 6-{(S)-5-[2-({4-[4-(oxetan-3-yloxy)-pyrimidin-2-yl]-pyridin-2-ylmethyl}-amino)-ethyl]-2-oxo-oxazolidin-3-yl}-4H-benzo[1,4]thiazin-3-one], the MIC with E. faecalis ATCC 29212 was 0.25 µg/mL (≈ 0.468 µM); with S. aureus A798, at most 0.031 µg/mL; in the assay on A. baumannii T6474, 0.25 µg/mL (≈ 0.468 µM); in the assay with M. catarrhalis A894, at most 0.031 µg/mL.

On to `O=C1COc2ccc(-n3cc(CCNCc4cc(-c5nccc(OC6COC6)n5)ccn4)oc3=O)nc2N1` [Example 13, 6-{5-[2-({4-[4-(oxetan-3-yloxy)-pyrimidin-2-yl]-pyridin-2-ylmethyl}-amino)-ethyl]-2-oxo-oxazol-3-yl}-4H-pyrido[3,2-b][1,4]oxazin-3-one], for which the minimal inhibitory concentration (MIC) is 0.5 µg/mL (≈ 0.966 µM) against E. faecalis ATCC 29212, at most 0.031 µg/mL in the assay on S. aureus A798, 0.125 µg/mL (≈ 0.242 µM) with A. baumannii T6474 and at most 0.031 µg/mL against M. catarrhalis A894.

On to `O=C1COc2ccc(N3C[C@H](CCNCc4cc(-c5cncc(OC6COC6)n5)c(O)cn4)OC3=O)nc2N1` [Example 14, 6-{(S)-5-[2-({5-hydroxy-4-[6-(oxetan-3-yloxy)-pyrazin-2-yl]-pyridin-2-ylmethyl}-amino)-ethyl]-2-oxo-oxazolidin-3-yl}-4H-pyrido[3,2-b][1,4]oxazin-3-one], for which the MIC is 4 µg/mL (≈ 7.47 µM) in the assay with E. faecalis ATCC 29212, 1 µg/mL (≈ 1.87 µM) with S. aureus A798, 4 µg/mL (≈ 7.47 µM) in the assay with A. baumannii T6474 and 0.5 µg/mL (≈ 0.934 µM) in the assay with M. catarrhalis A894.

For `O=C1COc2ccc(N3C[C@H](CCNCc4cc(-c5nccc(OC6COC6)n5)c(O)cn4)OC3=O)nc2N1` [Example 15, 6-{(S)-5-[2-({5-hydroxy-4-[4-(oxetan-3-yloxy)-pyrimidin-2-yl]-pyridin-2-ylmethyl}-amino)-ethyl]-2-oxo-oxazolidin-3-yl}-4H-pyrido[3,2-b][1,4]oxazin-3-one], the minimal inhibitory concentration (MIC) was 0.25 µg/mL (≈ 0.467 µM) against E. faecalis ATCC 29212, at most 0.031 µg/mL against S. aureus A798, 0.25 µg/mL (≈ 0.467 µM) with A. baumannii T6474 and at most 0.031 µg/mL in the assay on M. catarrhalis A894.

With `O=C1COc2ccc(N3C[C@H](CCNCc4nccc(-c5cncc(OC6COC6)n5)c4O)OC3=O)nc2N1` [Example 16, 6-{(S)-5-[2-({3-Hydroxy-4-[6-(oxetan-3-yloxy)-pyrazin-2-yl]-pyridin-2-ylmethyl}-amino)-ethyl]-2-oxo-oxazolidin-3-yl}-4H-pyrido[3,2-b][1,4]oxazin-3-one], the MIC in the assay with E. faecalis ATCC 29212 is 2 µg/mL (≈ 3.73 µM); against S. aureus A798, 0.25 µg/mL (≈ 0.467 µM); in the assay on A. baumannii T6474 it was 1 µg/mL (≈ 1.87 µM); against M. catarrhalis A894, 0.25 µg/mL (≈ 0.467 µM).
